Results from PubChem BioAssay (NCI).
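Values below derive from 48-hour exposures of cells grown in 96-well plates, with endpoints linearly interpolated between the two concentrations bracketing the appropriate inhibition level. The concentration for 50% growth inhibition is given as GI50. TGI is the concentration that stops growth completely.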

What was measured:
Assay in all cases: NCI anticancer screen, dose series, 48 h
LOX IMVI melanoma = tested on: LOX IMVI melanoma
DMS 114 small cell lung = tested on: DMS 114 small cell lung
HS 578T breast = tested on: HS 578T breast
UACC-257 melanoma = tested on: UACC-257 melanoma
SK-OV-3 ovarian = tested on: SK-OV-3 ovarian
MALME-3M melanoma = tested on: MALME-3M melanoma
NCI/ADR-RES ovarian = tested on: NCI/ADR-RES ovarian
M14 melanoma = tested on: M14 melanoma
HT29 colon = tested on: HT29 colon
SF-295 CNS = tested on: SF-295 CNS
MCF7 breast = tested on: MCF7 breast
SN12C renal = tested on: SN12C renal
SF-268 CNS = tested on: SF-268 CNS
K-562 leukemia = tested on: K-562 leukemia
HL-60(TB) leukemia = tested on: HL-60(TB) leukemia
T-47D breast = tested on: T-47D breast
CAKI-1 renal = tested on: CAKI-1 renal
RXF 393 renal = tested on: RXF 393 renal
MDA-MB-231 breast = tested on: MDA-MB-231 breast
HOP-62 NSCLC = tested on: HOP-62 NSCLC
DU-145 prostate = tested on: DU-145 prostate
BT-549 breast = tested on: BT-549 breast
PC-3 prostate = tested on: PC-3 prostate
UO-31 renal = tested on: UO-31 renal
A498 renal = tested on: A498 renal
MDA-MB-435 = tested on: MDA-MB-435
EKVX NSCLC = tested on: EKVX NSCLC
NCI-H460 lung = tested on: NCI-H460 lung
HCC-2998 colon = tested on: HCC-2998 colon
KM12 colon = tested on: KM12 colon
SK-MEL-2 melanoma = tested on: SK-MEL-2 melanoma
OVCAR-8 ovarian = tested on: OVCAR-8 ovarian
DMS 273 small cell lung = tested on: DMS 273 small cell lung
SNB-19 CNS = tested on: SNB-19 CNS
DLD-1 colon = tested on: DLD-1 colon
HCT-15 colon = tested on: HCT-15 colon
RPMI-8226 leukemia = tested on: RPMI-8226 leukemia
XF 498 CNS = tested on: XF 498 CNS
NCI-H23 lung = tested on: NCI-H23 lung
TK-10 renal = tested on: TK-10 renal
U251 CNS = tested on: U251 CNS
SNB-75 CNS = tested on: SNB-75 CNS
HCT-116 colon = tested on: HCT-116 colon
HOP-92 NSCLC = tested on: HOP-92 NSCLC
MOLT-4 leukemia = tested on: MOLT-4 leukemia
IGROV1 ovarian = tested on: IGROV1 ovarian
OVCAR-4 ovarian = tested on: OVCAR-4 ovarian
SK-MEL-28 melanoma = tested on: SK-MEL-28 melanoma
SW-620 colon = tested on: SW-620 colon
CCRF-CEM leukemia = tested on: CCRF-CEM leukemia
SK-MEL-5 melanoma = tested on: SK-MEL-5 melanoma
KM20L2 colon = tested on: KM20L2 colon
UACC-62 melanoma = tested on: UACC-62 melanoma
SF-539 CNS = tested on: SF-539 CNS
NCI-H226 lung = tested on: NCI-H226 lung
ACHN renal = tested on: ACHN renal
OVCAR-3 ovarian = tested on: OVCAR-3 ovarian
NCI-H522 lung = tested on: NCI-H522 lung
A549 NSCLC = tested on: A549 NSCLC
SR leukemia = tested on: SR leukemia
OVCAR-5 ovarian = tested on: OVCAR-5 ovarian
786-0 renal = tested on: 786-0 renal
M19-MEL melanoma = tested on: M19-MEL melanoma
COLO 205 colon = tested on: COLO 205 colon
SNB-78 CNS = tested on: SNB-78 CNS
HOP-18 NSCLC = tested on: HOP-18 NSCLC
LXFL 529 NSCLC = tested on: LXFL 529 NSCLC

S=c1nc(/C=C/c2ccc(Cl)c(Cl)c2)[nH][nH]1
TGI (LOX IMVI melanoma): > 100 µM
TGI (DMS 114 small cell lung): 0.12 µM
GI50 (HS 578T breast): > 100 µM
TGI (HS 578T breast): > 100 µM
TGI (UACC-257 melanoma): > 100 µM
TGI (SK-OV-3 ovarian): > 100 µM
TGI (MALME-3M melanoma): > 100 µM
GI50 (NCI/ADR-RES ovarian): > 100 µM
TGI (NCI/ADR-RES ovarian): > 100 µM
GI50 (M14 melanoma): 94.7 µM
TGI (M14 melanoma): > 100 µM
TGI (HT29 colon): > 100 µM
TGI (SF-295 CNS): > 100 µM
GI50 (MCF7 breast): > 100 µM
TGI (MCF7 breast): > 100 µM
TGI (SN12C renal): > 100 µM
TGI (SF-268 CNS): > 100 µM
TGI (K-562 leukemia): > 100 µM
TGI (HL-60(TB) leukemia): > 100 µM
GI50 (T-47D breast): 77.1 µM
TGI (T-47D breast): > 100 µM
GI50 (CAKI-1 renal): 70 µM
TGI (CAKI-1 renal): > 100 µM
TGI (RXF 393 renal): > 100 µM
GI50 (MDA-MB-231 breast): 79 µM
TGI (MDA-MB-231 breast): > 100 µM
TGI (HOP-62 NSCLC): > 100 µM
GI50 (DU-145 prostate): > 100 µM
TGI (DU-145 prostate): > 100 µM
GI50 (BT-549 breast): 31.3 µM
TGI (BT-549 breast): > 100 µM
GI50 (PC-3 prostate): 53.4 µM
TGI (PC-3 prostate): > 100 µM
TGI (UO-31 renal): > 100 µM
TGI (A498 renal): > 100 µM
GI50 (MDA-MB-435): 86.7 µM
TGI (MDA-MB-435): > 100 µM
TGI (EKVX NSCLC): > 100 µM
TGI (NCI-H460 lung): > 100 µM
TGI (HCC-2998 colon): > 100 µM
TGI (KM12 colon): > 100 µM
TGI (SK-MEL-2 melanoma): > 100 µM
TGI (OVCAR-8 ovarian): > 100 µM
TGI (DMS 273 small cell lung): > 100 µM
TGI (SNB-19 CNS): > 100 µM
TGI (DLD-1 colon): > 100 µM
TGI (HCT-15 colon): > 100 µM
GI50 (RPMI-8226 leukemia): 51.4 µM
TGI (RPMI-8226 leukemia): > 100 µM
TGI (XF 498 CNS): 95.5 µM
TGI (NCI-H23 lung): > 100 µM
TGI (TK-10 renal): > 100 µM
TGI (U251 CNS): > 100 µM
GI50 (SNB-75 CNS): > 100 µM
TGI (SNB-75 CNS): > 100 µM
TGI (HCT-116 colon): > 100 µM
GI50 (HOP-92 NSCLC): 0.802 µM
TGI (HOP-92 NSCLC): 64.6 µM
TGI (MOLT-4 leukemia): > 100 µM
TGI (IGROV1 ovarian): > 100 µM
GI50 (OVCAR-4 ovarian): 65.5 µM
TGI (OVCAR-4 ovarian): > 100 µM
TGI (SK-MEL-28 melanoma): > 100 µM
TGI (SW-620 colon): > 100 µM
TGI (CCRF-CEM leukemia): > 100 µM
TGI (SK-MEL-5 melanoma): > 100 µM
TGI (KM20L2 colon): > 100 µM
TGI (UACC-62 melanoma): > 100 µM
TGI (SF-539 CNS): > 100 µM
TGI (NCI-H226 lung): > 100 µM
TGI (ACHN renal): > 100 µM
TGI (OVCAR-3 ovarian): > 100 µM
TGI (NCI-H522 lung): > 100 µM
TGI (A549 NSCLC): > 100 µM
GI50 (SR leukemia): 22.7 µM
TGI (SR leukemia): > 100 µM
TGI (OVCAR-5 ovarian): > 100 µM
TGI (786-0 renal): > 100 µM

COc1ccccc1NS(=O)(=O)c1cc(C(C)(C)C)ccc1OCCOc1ccc(C(C)(C)C)cc1S(=O)(=O)Nc1ccccc1OC
TGI (LOX IMVI melanoma): > 100 µM
TGI (DMS 114 small cell lung): > 100 µM
TGI (UACC-257 melanoma): > 100 µM
TGI (SK-OV-3 ovarian): > 100 µM
TGI (M19-MEL melanoma): > 100 µM
TGI (MALME-3M melanoma): > 100 µM
TGI (M14 melanoma): > 100 µM
TGI (HT29 colon): > 100 µM
TGI (SF-295 CNS): > 100 µM
TGI (SN12C renal): > 100 µM
TGI (SF-268 CNS): > 100 µM
TGI (K-562 leukemia): > 100 µM
TGI (HL-60(TB) leukemia): > 100 µM
TGI (CAKI-1 renal): > 100 µM
TGI (RXF 393 renal): > 100 µM
TGI (HOP-62 NSCLC): > 100 µM
TGI (UO-31 renal): > 100 µM
TGI (A498 renal): > 100 µM
TGI (EKVX NSCLC): > 100 µM
TGI (NCI-H460 lung): > 100 µM
TGI (HCC-2998 colon): > 100 µM
TGI (KM12 colon): > 100 µM
TGI (COLO 205 colon): > 100 µM
TGI (SK-MEL-2 melanoma): > 100 µM
TGI (OVCAR-8 ovarian): > 100 µM
TGI (DMS 273 small cell lung): > 100 µM
TGI (SNB-19 CNS): > 100 µM
TGI (DLD-1 colon): > 100 µM
TGI (HCT-15 colon): > 100 µM
TGI (RPMI-8226 leukemia): > 100 µM
TGI (SNB-78 CNS): > 100 µM
TGI (HOP-18 NSCLC): > 100 µM
TGI (NCI-H23 lung): > 100 µM
TGI (TK-10 renal): > 100 µM
TGI (U251 CNS): > 100 µM
TGI (SNB-75 CNS): > 100 µM
TGI (HCT-116 colon): > 100 µM
TGI (HOP-92 NSCLC): > 100 µM
TGI (MOLT-4 leukemia): > 100 µM
TGI (IGROV1 ovarian): > 100 µM
TGI (OVCAR-4 ovarian): > 100 µM
TGI (SK-MEL-28 melanoma): > 100 µM
TGI (SW-620 colon): > 100 µM
TGI (CCRF-CEM leukemia): > 100 µM
TGI (SK-MEL-5 melanoma): > 100 µM
TGI (UACC-62 melanoma): > 100 µM
TGI (SF-539 CNS): > 100 µM
TGI (NCI-H226 lung): > 100 µM
TGI (ACHN renal): > 100 µM
TGI (OVCAR-3 ovarian): > 100 µM
TGI (A549 NSCLC): > 100 µM
TGI (OVCAR-5 ovarian): > 100 µM
TGI (786-0 renal): > 100 µM

O=[N+]([O-])c1ccc(N=Nc2c(O)[nH]c3ccc(Br)cc23)c([N+](=O)[O-])c1
TGI (LOX IMVI melanoma): 3.17 µM
TGI (UACC-257 melanoma): 15.6 µM
TGI (SK-OV-3 ovarian): 34.7 µM
TGI (M19-MEL melanoma): 9.91 µM
TGI (MALME-3M melanoma): 15 µM
TGI (M14 melanoma): 21.2 µM
TGI (HT29 colon): > 100 µM
TGI (SF-295 CNS): 14.8 µM
TGI (SN12C renal): 11.4 µM
TGI (SF-268 CNS): 16.6 µM
TGI (K-562 leukemia): 15.5 µM
TGI (HL-60(TB) leukemia): 4.77 µM
TGI (CAKI-1 renal): 27.2 µM
TGI (RXF 393 renal): 15.3 µM
TGI (HOP-62 NSCLC): 21 µM
TGI (UO-31 renal): 7.14 µM
TGI (EKVX NSCLC): 33.7 µM
TGI (HCC-2998 colon): 23.4 µM
TGI (KM12 colon): 79.6 µM
TGI (COLO 205 colon): 5.92 µM
TGI (SK-MEL-2 melanoma): 8.04 µM
TGI (OVCAR-8 ovarian): 18.9 µM
TGI (SNB-19 CNS): 17.1 µM
TGI (DLD-1 colon): 20.4 µM
TGI (HCT-15 colon): 11.6 µM
TGI (RPMI-8226 leukemia): 9.84 µM
TGI (SNB-78 CNS): > 100 µM
TGI (HOP-18 NSCLC): 4.69 µM
TGI (NCI-H23 lung): 8.28 µM
TGI (TK-10 renal): 37.8 µM
TGI (U251 CNS): 16.3 µM
TGI (SNB-75 CNS): 11.5 µM
TGI (HCT-116 colon): 3.09 µM
TGI (HOP-92 NSCLC): 5.1 µM
TGI (MOLT-4 leukemia): 26.2 µM
TGI (IGROV1 ovarian): 45.7 µM
TGI (LXFL 529 NSCLC): 13.9 µM
TGI (SK-MEL-28 melanoma): 10.3 µM
TGI (SW-620 colon): 11.7 µM
TGI (CCRF-CEM leukemia): 9.3 µM
TGI (SK-MEL-5 melanoma): 3.49 µM
TGI (KM20L2 colon): 13.4 µM
TGI (UACC-62 melanoma): 16.2 µM
TGI (ACHN renal): 9.44 µM
TGI (OVCAR-3 ovarian): 19.3 µM
TGI (NCI-H522 lung): 8.35 µM
TGI (A549 NSCLC): 20.4 µM
TGI (SR leukemia): 10.5 µM
TGI (786-0 renal): 13.2 µM
